According to patent US7868004B2, “Menthane carboxamide derivatives having cooling properties” (Givaudan S.A., priority 2005, dated 2011):

Experiments:
Format in all cases: in vivo
panelists = experiment: experiment on cooling intensity: panelists taste solutions and compare with menthol at 2 ppm; conditions: tasted by a small group of panelists; reference menthol at 2 ppm
mouth [1] = experiment: Application in toothpaste: cooling perception in the mouth; conditions: toothgel with 1.500 g of 2% solution in PG per 100 g, teeth brushed, mouth rinsed with water
Excerpt: [table] The chemicals are mixed in the toothgel, a piece of toothgel is put on a toothbrush and a panelist's teeth are brushed. The mouth is rinsed with water and the water is spit out. […] The cooling perception lasts for several hours.

mouth [2] = experiment: Application in mouthwash: cooling perception in the mouth; conditions: mouthwash with 10 mL of 1% solution in alcohol per liter, 30 mL swished, gargled and spit out
Method: [table] All the ingredients are mixed. 30 mL of obtained solution is put in the mouth, swished around, gargled and spit out. […] The cooling perception lasts for several hours

Row | Compound | Concentration of solution having a cooling intensity similar or slightly higher than that of a solution of menthol at 2 ppm (panelists) | other results
1 | CC1CCC(C(C)C)C(C(=O)Nc2ccc(-c3cnco3)cc2)C1 (stereo not shown) [Example 5, N-4-(oxazol-5-yl)-phenyl-3-p-menthanecarboxamide] | 0.5 ppm | 
2 | CC1CCC(C(C)C)C(C(=O)Nc2cccc(-c3cnco3)c2)C1 (stereo not shown) [Example 6, N-3-(oxazol-5-yl)-phenyl-3-p-menthanecarboxamide] | 0.1 ppm | duration of cooling perception (mouth [1]): several hours; cooling sensation (mouth [1]; all areas of the mouth): intense cooling sensation
3 | CC1CCC(C(C)C)C(C(=O)Nc2ccc(N3CCOCC3)cc2)C1 (stereo not shown) [N-4-(morpholin-4-yl)-phenyl 3-p-menthanecarboxamide] | 0.2 ppm | 
4 | CC1CCC(C(C)C)C(C(=O)Nc2ccc3c(c2)OCO3)C1 (stereo not shown) [N-benzo[1,3]dioxol-5-yl-3-p-menthanecarboxamide] | 0.02 ppm | 
5 | CC1CCC(C(C)C)C(C(=O)Nc2cccc3ocnc23)C1 (stereo not shown) [Example 1, N-benzooxazol-4-yl 3-p-menthanecarboxamide] | 0.02 ppm | duration of cooling perception (mouth [2]): several hours; cooling sensation (mouth [2]; every area of the mouth and lips): intense cooling
6 | CC1CCC(C(C)C)C(C(=O)Nc2ccc(-n3cccn3)cc2)C1 (stereo not shown) [N-4-(pyrazol-1-yl)-phenyl-3-p-menthanecarboxamide] | 0.02 ppm | 
7 | CC1CCC(C(C)C)C(O)C1 (stereo not shown) [Example 1-Menthol, 1-Menthol, reference compound] | 2.0 ppm | 
8 | CC1CCC(C(C)C)C(C(=O)Nc2ccc(-n3cncn3)cc2)C1 (stereo not shown) [Example 4, N-4-([1,2,4]triazol-1-yl)-phenyl-3-p-menthanecarboxamide] | 0.02 ppm | 
9 | CC1CCC(C(C)C)C(C(=O)Nc2ccc3ncsc3c2)C1 (stereo not shown) [Example 3, N-benzothiazol-6-yl menthanecarboxamide] | 0.3 ppm | 
